We go through 17 compounds from US12091393B2, “Small molecule vaccine adjuvant for enhancing or prolonging immune response” (The Regents of the University of California, priority 2018, dated 2024).

Each structure is given as a SMILES string. “Also recorded” adds a separate entry of the source. Read-outs that look alike come from different tables or passages of the source.

The subject of data set [1] is NF-κB. Briefly: Measurement of NF-κB activation using THP1-Blue NF-κB cells (SEAP). The format is cell-based. As to conditions: for activity at 5 µM: 20 h, two point normalized, compound 1 as 200%; for NF-κB activity (SAR discussion, in words): evaluated in both the presence and absence of LPS; for NF-κB activity when tested alone (in words): compound alone, without LPS.

The test system of data set [2] is NF-κB. Briefly: cell-based NF-κB FRET assay. As to conditions: compound + LPS; two point normalized, compound 1 as 200%, LPS (10 ng/mL) as 100%. From the text: Site A was assigned the 4-substituent of thiazole ring, site B was the thiazole ring itself, site C was the central amide bond in the structure, site D was the benzene ring bearing 1,4-carboxyl and sulfamoyl group, site E was the sulfonamide functional group and site F was the amide substituent on the sulfamoyl group.

For a further data set, the system named is THP-1 cells. Briefly: Cell viability assay (MTT). The data set is classed as cell-based. The settings on record: compound 5 μM alone, 18 h, normalized to DMSO as 100%. The protocol:
THP-1 cells were plated in 96-well plates (10^5 cells/well) in 100 μL RPMI supplemented with 10% FBS, 100 U/mL penicillin and 100 μg/ml streptomycin. Compounds were dissolved in DMSO at 1 mM stock solution and were further diluted to 10 μM in the assay medium. 100 μL of this solution was added to the cells to obtain a final compound concentration of 5 μM ([…]). After 18 h incubation, a solution of MTT in assay media (0.5 mg/mL) was added to each well and further incubated for 4 to 6 h, followed by addition of cell lysis buffer (15% w/v SDS and 0.12% v/v 12N HCl aqueous solution), incubated overnight, and then absorbance measured at 570 nm using 650 nm as reference using Tecan Infinite M200 plate reader.

[3] abbreviates: compound 5 μM + LPS, LPS (10 ng/mL) as 100%, read-out: NF-κB SEAP Compound + LPS % Activation.
[4] abbreviates: compound 5 μM alone, LPS or DMSO as 100%, read-out: NF-κB SEAP Compound alone % Activation.

For `Cc1ccc(C)c(-c2csc(NC(=O)c3ccc(S(=O)(=O)N4CCCCC4)cn3)n2)c1` [Compound 46a, N-(4-(2,5-dimethylphenyl)thiazol-2-yl)-5-(piperidin-1-ylsulfonyl)picolinamide], the activity at 5 µM in the data set with NF-κB [1] (setting [3]) was 111%; with NF-κB [1] (setting [4]) it was 99.2%. Further, the “NF-κB activity (SAR discussion, in words)” value in the data set with NF-κB [1] was “none of these modifications at site D or E were tolerated”. Also, in the data set on NF-κB [2], the “NF-κB FRET Compound + LPS % Activation” value turned out to be 151.90%. In the data set on THP-1 cells, the “MTT Compound alone % Viability” value turned out to be 94.46%.
Take `Cc1cccc(-c2csc(NC(=O)c3ccc(S(=O)(=O)N4CCCCC4)cc3)n2)c1C` [Compound 12l, N-(4-(2,3-dimethylphenyl)thiazol-2-yl)-4-(piperidin-1-ylsulfonyl)benzamide]: the activity at 5 µM with NF-κB [1] (setting [3]) was determined as 157%; with NF-κB [1] (setting [4]), 195%. In addition, the “NF-κB activity (SAR discussion, in words)” value in the data set on NF-κB [1] was “retained activity”. For the same compound, the “NF-κB FRET Compound + LPS % Activation” value in the data set on NF-κB [2] stood at 206.60%. Also, the “MTT Compound alone % Viability” value in the data set on THP-1 cells amounted to 98.37%.
Regarding `CCC#Cc1sc(NC(=O)c2ccc(S(=O)(=O)N3CCCCC3)cc2)nc1-c1cc(C)ccc1C` [Compound 18p, N-(5-(but-1-yn-1-yl)-4-(2,5-dimethylphenyl)thiazol-2-yl)-4-(piperidin-1-ylsulfonyl)benzamide], the activity at 5 µM amounted to 192% with NF-κB [1] (setting [3]) and 291% with NF-κB [1] (setting [4]). In addition, the “NF-κB activity when tested alone (in words)” value with NF-κB [1] is reported as “very potent”. Also, the “NF-κB FRET Compound + LPS % Activation” value in the data set on NF-κB [2] turned out to be 210.21%. Besides, the “MTT Compound alone % Viability” value with THP-1 cells was 120.17%.
Regarding `C#CCN(CC)S(=O)(=O)c1ccc(C(=O)Nc2nc(-c3cc(C)ccc3C)cs2)cc1` [Compound 72b, N-(4-(2,5-dimethylphenyl)thiazol-2-yl)-4-(N-ethyl-N-(prop-2-yn-1-yl)sulfamoyl)benzamide], the activity at 5 µM in the data set with NF-κB [1] (setting [3]) was 109%; with NF-κB [1] (setting [4]) it was 105%. For the same compound, the “NF-κB activity (SAR discussion, in words)” value in the data set with NF-κB [1] was “lost their activity”. Also, the “NF-κB FRET Compound + LPS % Activation” value in the data set with NF-κB [2] worked out at 129.85%. For the same compound, the “MTT Compound alone % Viability” value in the data set on THP-1 cells was 81.42%.
On the same counts, the results for `C#Cc1sc(NC(=O)c2ccc(S(=O)(=O)N3CCCCC3)cc2)nc1-c1cc(C)ccc1C` [Compound 18o, N-(4-(2,5-dimethylphenyl)-5-ethynylthiazol-2-yl)-4-(piperidin-1-ylsulfonyl)benzamide] are 153%, 118%, “weak activity”, 101.71% and 111.27%.
With `CCCC#Cc1sc(NC(=O)c2ccc(S(=O)(=O)N3CCCCC3)cc2)nc1-c1cc(C)ccc1Br` [Compound 64, N-(4-(2-bromo-5-methylphenyl)-5-(pent-1-yn-1-yl)thiazol-2-yl)-4-(piperidin-1-ylsulfonyl)benzamide], the values for the activity at 5 µM in the data set on NF-κB [1] (setting [3]) and with NF-κB [1] (setting [4]) were 287% and 348%, respectively. The “NF-κB activity (SAR discussion, in words)” value in the data set on NF-κB [1] is “very potent and showed better potency than compound 1”. For the same compound, the “NF-κB FRET Compound + LPS % Activation” value in the data set with NF-κB [2] turned out to be 196.14%. Also, the “MTT Compound alone % Viability” value in the data set on THP-1 cells was 101.42%.
With `CCCCCc1sc(NC(=O)c2ccc(S(=O)(=O)N3CCCCC3)cc2)nc1-c1cc(C)ccc1C` [Compound 18t, N-(4-(2,5-dimethylphenyl)-5-pentylthiazol-2-yl)-4-(piperidin-1-ylsulfonyl)benzamide], the activity at 5 µM worked out at 132% in the data set with NF-κB [1] (setting [3]) and 119% in the data set with NF-κB [1] (setting [4]). Besides, the “NF-κB activity (SAR discussion, in words)” value in the data set on NF-κB [1] was “loss in activity”. In addition, the “NF-κB FRET Compound + LPS % Activation” value in the data set with NF-κB [2] was found to be 213.25%. Moreover, in the data set with THP-1 cells, the “MTT Compound alone % Viability” value is given as 110.37%.
On the same counts, the results for `Cc1ccc(C)c(-c2nc(NC(=O)c3ccc(S(=O)(=O)N4CCCCC4)cc3)sc2N2CCCCC2)c1` [Compound 18h, N-(4-(2,5-dimethylphenyl)-5-(piperidin-1-yl)thiazol-2-yl)-4-(piperidin-1-ylsulfonyl)benzamide] are 99.9%, 99.2%, “completely inactive”, 99.96% and 89.45%.
For the compound `CCCC#Cc1sc(NC(=O)c2ccc(S(=O)(=O)N3CCC(CCC)CC3)cc2)nc1-c1cc(C)ccc1C` [Compound 61, N-(4-(2,5-dimethylphenyl)-5-(pent-1-yn-1-yl)thiazol-2-yl)-4-((4-propylpiperidin-1-yl)sulfonyl)benzamide], the activity at 5 µM with NF-κB [1] (setting [3]) was 189%; in the data set on NF-κB [1] (setting [4]), 119%. In addition, the “NF-κB activity (SAR discussion, in words)” value with NF-κB [1] was “very potent and showed better potency than compound 1”. Also, the “NF-κB FRET Compound + LPS % Activation” value with NF-κB [2] is 207.19%. Also, in the data set on THP-1 cells, the “MTT Compound alone % Viability” value is 102.98%.
Consider `Cc1cccc(-c2csc(NC(=O)c3ccc(S(=O)(=O)N4CCCCC4)cc3)n2)c1` [Compound 12c, 4-(piperidin-1-ylsulfonyl)-N-(4-(m-tolyl)thiazol-2-yl)benzamide], for which the activity at 5 µM in the data set on NF-κB [1] (setting [3]) was 98.6%; in the data set with NF-κB [1] (setting [4]), 99.5%. Further, the “NF-κB activity (SAR discussion, in words)” value with NF-κB [1] was “inactive”. Besides, in the data set on NF-κB [2], the “NF-κB FRET Compound + LPS % Activation” value amounted to 78.98%. Further, in the data set on THP-1 cells, the “MTT Compound alone % Viability” value came out at 96.06%.
On the same counts, the results for `CCCN(CC)S(=O)(=O)c1ccc(C(=O)Nc2nc(-c3cc(C)ccc3C)cs2)cc1` [Compound 58a, N-(4-(2,5-dimethylphenyl)thiazol-2-yl)-4-(N-ethyl-N-propylsulfamoyl)benzamide] are 217%, 207%, “tolerated; also recorded: active”, 158.36% and 73.63%.
On to `Cc1ccc(C)c(-c2nc(NC(=O)c3ccc(S(=O)(=O)N4CCCCC4)cc3)sc2-c2ccco2)c1` [Compound 18j, N-(4-(2,5-dimethylphenyl)-5-(furan-2-yl)thiazol-2-yl)-4-(piperidin-1-ylsulfonyl)benzamide], for which the activity at 5 µM with NF-κB [1] (setting [3]) is 102%; in the data set on NF-κB [1] (setting [4]) it was 100%. For the same compound, in the data set on NF-κB [1], the “NF-κB activity (SAR discussion, in words)” value was “completely inactive”. Besides, the “NF-κB FRET Compound + LPS % Activation” value in the data set with NF-κB [2] is 160.49%. Moreover, in the data set on THP-1 cells, the “MTT Compound alone % Viability” value is 107.56%.
With `Cc1ccc(Br)cc1-c1csc(NC(=O)c2ccc(S(=O)(=O)N3CCCCC3)cc2)n1` [Compound 12e, N-(4-(5-bromo-2-methylphenyl)thiazol-2-yl)-4-(piperidin-1-ylsulfonyl)benzamide], the values for the activity at 5 µM in the data set on NF-κB [1] (setting [3]) and with NF-κB [1] (setting [4]) were 213% and 207%, respectively. The “NF-κB activity (SAR discussion, in words)” value with NF-κB [1] is reported as “active”. The “NF-κB FRET Compound + LPS % Activation” value in the data set with NF-κB [2] is 189.97%. Also, the “MTT Compound alone % Viability” value with THP-1 cells is recorded as 91.50%.
As to `Cc1ccc(C)c(-c2nc(NC(=O)c3ccc(S(=O)(=O)N4CCCCC4)cc3)sc2Br)c1` [Compound 18n, N-(5-bromo-4-(2,5-dimethylphenyl)thiazol-2-yl)-4-(piperidin-1-ylsulfonyl)benzamide], the figures for the activity at 5 µM with NF-κB [1] (setting [3]) and with NF-κB [1] (setting [4]) were 198% and 133%, respectively. In addition, in the data set with NF-κB [2], the “NF-κB FRET Compound + LPS % Activation” value is given as 154.54%. Further, the “MTT Compound alone % Viability” value in the data set with THP-1 cells is 84.46%.
`Cc1ccc(C)c(-c2nc(NC(=O)c3ccc(S(=O)(=O)N4CCCCC4)cc3)sc2C)c1` [Compound 18m, N-(4-(2,5-dimethylphenyl)-5-methylthiazol-2-yl)-4-(piperidin-1-ylsulfonyl)benzamide]: the results for the activity at 5 µM with NF-κB [1] (setting [3]) and in the data set on NF-κB [1] (setting [4]) were 179% and 159%, respectively. Also, the “NF-κB FRET Compound + LPS % Activation” value with NF-κB [2] is given as 186.92%. Besides, the “MTT Compound alone % Viability” value in the data set on THP-1 cells came to 96.90%.
Take `Cc1ccc(C)c(-c2csc(NCc3ccc(S(=O)(=O)N4CCCCC4)cc3)n2)c1` [Compound 34a, 4-(2,5-dimethylphenyl)-N-(4-(piperidin-1-ylsulfonyl)benzyl)thiazol-2-amine]: the activity at 5 µM in the data set with NF-κB [1] (setting [3]) turned out to be 102%; in the data set on NF-κB [1] (setting [4]), 99.1%. Moreover, the “NF-κB activity (SAR discussion, in words)” value with NF-κB [1] is “inactive”. Besides, in the data set on NF-κB [2], the “NF-κB FRET Compound + LPS % Activation” value is recorded as 106.53%. In the data set on THP-1 cells, the “MTT Compound alone % Viability” value was 85.48%.
As to `CCCC1CCN(S(=O)(=O)c2ccc(C(=O)Nc3nc(-c4cc(C)ccc4C)cs3)cc2)CC1` [Compound 58h, N-(4-(2,5-dimethylphenyl)thiazol-2-yl)-4-((4-propylpiperidin-1-yl)sulfonyl)benzamide], the values for the activity at 5 µM with NF-κB [1] (setting [3]) and in the data set on NF-κB [1] (setting [4]) were 248% and 517%, respectively. Further, in the data set on NF-κB [1], the “NF-κB activity when tested alone (in words)” value is given as “very potent”. In the data set with NF-κB [1], the “NF-κB activity (SAR discussion, in words)” value is “active; also recorded: most potent”. Besides, the “NF-κB FRET Compound + LPS % Activation” value with NF-κB [2] was determined as 218.16%. In addition, the “MTT Compound alone % Viability” value in the data set on THP-1 cells came out at 111.27%.
